Data on 3 molecules can be found in patent publication US20110237567A9, “TRICYCLIC SPIRO-OXINDOLE DERIVATIVES AND THEIR USES AS THERAPEUTIC AGENTS” (XENON PHARMACEUTICALS INC., priority 2006, published 2011).

The subject of series [1] is sodium channel. Kind of series: Guanidine influx assay (in vitro). It counts as cell-based, human or rat. To be noted: known cell line that expresses a sodium channel; read-out: IC50 Activity Level. The text has this:
This example describes an in vitro assay for testing and profiling test agents against human or rat sodium channels stably expressed in cells of either an endogenous or recombinant origin. The assay is also useful for determining the IC-50 of a sodium channel blocking compound. The assay is based on the guanidine flux assay described by Reddy, N. L., et al., J Med Chem (1998), 41(17):3298-302.
The guanidine influx assay is a radiotracer flux assay used to determine ion flux activity of sodium channels in a high-throughput microplate-based format. The assay uses ^14C-guanidine hydrochloride in combination with various known sodium channel modulators, to assay the potency of test agents. Potency is determined by an IC-50 calculation. Selectivity is determined by comparing potency of the compound for the channel of interest to its potency against other sodium channels (also called ‘selectivity profiling’). […]
Cells expressing the channel of interest are grown according to the supplier or in the case of a recombinant cell in the presence of selective growth media such as G418 (Gibco/Invitrogen). The cells are disassociated from the culture dishes with an enzymatic solution (1×) Trypsin/EDTA (Gibco/Invitrogen) and analyzed for density and viability using haemocytometer (Neubauer). […]
IC-50 value of a test agent for a specific sodium channel may be determined using the above general method. […]

For orientation: IC50 means the concentration at which inhibition is half-maximal. What is called melting point is the temperature, or range, at which the solid turns liquid.

Turning to `O=C1N2CCCCc3ccc(Br)c(c32)C12COc1cc3c(cc12)OCO3` (stereo not drawn) [Example 4], the IC50 in series [1] was 10 to 100 nM. Same read-out and setting: then `O=C1N2CCCOc3cccc(c32)C12COc1cc3c(cc12)OCO3` (stereo not drawn) [Example 2], with 100 to 1000 nM. In the case of `O=C1N2CCCSc3cccc(c32)C12COc1cc3c(cc12)OCO3` (stereo not drawn) [Synthetic Example 1, 3′,4′-Dihydro-2′H-spiro[furo[2,3-f][1,3]benzodioxole-7,7′-[1,4]thiazepino[2,3,4-hi]indol]-6′-one], the melting point is 216 to 217 °C.
